Where a SMILES comes first, the peptide text is derived from it. Bridges are numbered along the chain shown (N, C = ends). [ ]: non-standard residue; d: D form. R8 = C=CCCCCCC[C@@](C)(N)C(=O)O; S5 = C=CCCC[C@](C)(N)C(=O)O
Tests used:
SJSA-1 cells [1] = assay: p21 protein ELISA in SJSA-1 cells; assay type: cell-based, human; conditions: 21 hours after treatment, n = 2
SJSA-1 cells [2] = assay: Caspase-Glo 3/7 assay in SJSA-1 cells; assay type: cell-based, human; conditions: Caspase-Glo 3/7, 48 hours after treatment; n = 2
[3] = test system: p53 WT AML cells (primary AML cells, MOLM13); assay: p53 pathway activation; assay type: cell-based, human
[4] = test system: p53 WT AML cell lines (MOLM13, MOLM14, ML2, OCI/AML3, OCI/AML5); assay: Proliferation by trypan blue exclusion, p53 WT AML cell lines; assay type: cell-based, human
HL60 (p53 null) = assay: Proliferation and apoptosis in HL60; assay type: cell-based, human
p53 WT AML cell lines = assay: Cell cycle; assay type: cell-based, human
[5] = test system: MOLM13 p53 shRNA knockdown cell lines; assay: Proliferation and apoptosis in isogenic p53 shRNA MOLM13 cell lines; assay type: cell-based, human; conditions: n = 3
primary AML cells = assay: Viability, CFC and apoptosis of primary AML patient cells; assay type: cell-based, human; conditions: AML n = 4 compared to healthy controls n = 3
MOLM13 cells = assay: MOLM13 AML xenograft in NSG mice; assay type: in vivo, mouse; conditions: for median survival: vehicle 34
ML2 cells = assay: ML2 AML xenograft in mice; assay type: in vivo, mouse; conditions: vehicle 28.5
[6] = test system: healthy hematopoietic cells; assay: Effects on healthy hematopoiesis in non-tumor-bearing C57/BL6 mice; assay type: in vivo, mouse; conditions: 20 mg/kg TIW for 4 weeks
patient's MDS/AML cells = assay: In vitro treatment of the MDS/AML patient's cells; assay type: cell-based, human
[7] = test system: circulating CD34+ leukemic blasts; assay: Compassionate-use treatment of one MDS/AML patient; assay type: in vivo, human
[8] = test system: Kasumi-1 (p53 R248Q mutant)
[9] = clinical trials; cited from earlier work
U2OS p21-MS2 cells = assay: Live-cell imaging of p21-MS2 transcription sites; conditions: 5 μM, 4 hours after addition; 54 treated cells; untreated 16%
[10] = test system: leukemia cell lines with WT p53; assay: Cytotoxicity assay in leukemia cell lines with WT p53; conditions: five cell lines with WT p53; table S2
AML cell lines = assay: Colony-forming capacity and serial replating of AML cell lines
MDMX [11] = assay: MDMX expression in AML cells; conditions: mRNA and protein levels
[12] = cited from earlier work
MDMX [13] = conditions: cited from earlier work
MDM2 = MDM2 (Homo sapiens, UniProt Q00987); assay: Binding assay on immobilized protein surface; conditions: n = 2
Chain of MDM2 (Q00987 whole entry): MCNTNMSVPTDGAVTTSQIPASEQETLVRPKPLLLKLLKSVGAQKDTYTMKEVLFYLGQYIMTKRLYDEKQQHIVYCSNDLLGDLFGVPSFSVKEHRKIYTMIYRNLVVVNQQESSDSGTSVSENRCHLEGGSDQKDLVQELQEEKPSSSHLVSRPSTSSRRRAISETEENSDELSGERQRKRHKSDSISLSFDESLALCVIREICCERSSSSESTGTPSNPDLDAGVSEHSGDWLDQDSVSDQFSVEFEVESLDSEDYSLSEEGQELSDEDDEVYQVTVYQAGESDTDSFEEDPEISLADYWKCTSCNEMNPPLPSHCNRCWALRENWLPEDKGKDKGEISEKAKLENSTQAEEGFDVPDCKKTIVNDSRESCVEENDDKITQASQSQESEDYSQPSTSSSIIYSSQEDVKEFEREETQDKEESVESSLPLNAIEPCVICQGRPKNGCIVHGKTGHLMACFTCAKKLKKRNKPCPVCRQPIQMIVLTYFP

MDMX [14] = target: T1, MDMX (Homo sapiens, UniProt O15151); assay: Binding assay on immobilized protein surface; conditions: n = 2
T1 sequence (O15151 1-490): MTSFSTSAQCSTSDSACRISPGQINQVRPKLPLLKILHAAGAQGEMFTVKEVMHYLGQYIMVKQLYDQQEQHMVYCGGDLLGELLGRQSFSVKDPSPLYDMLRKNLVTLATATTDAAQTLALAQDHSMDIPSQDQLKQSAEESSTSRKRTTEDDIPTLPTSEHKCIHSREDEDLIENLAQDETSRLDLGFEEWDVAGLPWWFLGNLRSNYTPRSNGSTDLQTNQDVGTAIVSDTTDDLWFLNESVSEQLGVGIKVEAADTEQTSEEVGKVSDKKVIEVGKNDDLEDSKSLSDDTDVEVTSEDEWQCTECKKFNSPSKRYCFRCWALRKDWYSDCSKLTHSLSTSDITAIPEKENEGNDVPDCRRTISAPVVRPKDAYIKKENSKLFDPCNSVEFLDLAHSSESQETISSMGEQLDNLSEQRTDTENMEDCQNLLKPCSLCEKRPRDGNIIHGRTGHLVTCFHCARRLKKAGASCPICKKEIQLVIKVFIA

CC(=O)N[C@@H](CC(C)C)C(=O)N[C@H](C(=O)N[C@@H](Cc1ccccc1)C(=O)N[C@]1(C)CCCCCC/C=C\CCC[C@@](C)(C(=O)N[C@@H](C)C(=O)N[C@@H](C)C(=O)N[C@@H](C)C(=O)N[C@@H](C)C(=O)N[C@@H](C)C(=O)N[C@H](C)C(N)=O)NC(=O)[C@H](CC(C)C)NC(=O)[C@H](CCC(N)=O)NC(=O)[C@H](C)NC(=O)[C@H](Cc2c[nH]c3ccccc23)NC(=O)[C@H](Cc2ccc(O)cc2)NC(=O)[C@H](CCC(=O)O)NC1=O)[C@@H](C)O [ALRN-6924] (Ac-LTF[R8]EYWAQL[S5]AAAAA[dA]-NH2; staple (Z) 4-11; N-terminus and C-terminus assumed)
p21 protein (SJSA-1 cells [1]): concentration- dependent increase | caspase-3/7 activity (SJSA-1 cells [2]): concentration- dependent increase | p53 target gene expression (qRT-PCR) ([3]; MOLM13, 24 hours of treatment, n = 3): up-regulated CDKN1A, MDM2, BAX, PUMA, and GADD45a in a dose-dependent manner | p53, p21 and MDM2 protein ([3]; Western blot, primary AML cells and AML cell lines expressing WT p53, not in p53 null AML cells): stabilized p53 and up-regulated its downstream targets p21 and MDM2 in p53 WT cells in a dose-dependent manner | sensitivity of OCI/AML3 ([4]; OCI/AML3, suspension culture): less sensitive | cellular proliferation ([4]; trypan blue exclusion, dose- and time-dependent, n = 3): inhibited cellular proliferation | cell proliferation (HL60 (p53 null); HL60 (p53 null)): no effect on cell proliferation | apoptosis (HL60 (p53 null); HL60, doses between 5 and 10 μM): did not observe a significant increase in apoptosis | apoptosis (p53 WT AML cell lines; annexin V/DAPI, 24 hours, all five AML cell lines, n = 3): dose-dependent increase in apoptosis | cell cycle (p53 WT AML cell lines; propidium iodide staining, all p53 WT AML cell lines): induced cell cycle arrest | p53 dependency of growth inhibition and apoptosis [5]: completely p53-dependent manner | CFC of primary AML PBMCs (primary AML cells): inhibited CFC | median survival (MOLM13 cells; 20 mg/kg IV BIW (group 2)): 83 days | mice alive 300 days after treatment (MOLM13 cells; 20 mg/kg IV TIW (group 3)): 40% | median survival (MOLM13 cells; 20 mg/kg IV TIW (group 3)): 151 days | average engraftment of human CD45 leukemic cells (MOLM13 cells; 20 mg/kg, after 5 weeks of treatment, mouse BM, FACS, vehicle 23.3%): 0.00557% | increase of median survival compared to the control (MOLM13 cells; 8 or 12 mg/kg IV BIW): 5.5 days | human CD45 leukemic cells in the BM (MOLM13 cells; 8 or 12 mg/kg IV BIW, day 7 after the start of treatment): dose-dependent decrease in human CD45 leukemic cells | average median survival (ML2 cells; 20 mg/kg IV BIW): 38 days | average median survival (ML2 cells; 20 mg/kg IV TIW): 72 days | frequency of HSCs and progenitors versus control [6]: no significant differences | thrombocytopenia (platelet counts) ([6]; n = 10): did not show signs of thrombocytopenia | neutrophils ([6]; n = 10, within the normal range): only a modest reduction in neutrophils | AML-inhibitory effect versus RG7388 (patient's MDS/AML cells; 10 μM each): greater AML-inhibitory effect than RG7388 | cell proliferation and clonogenic capacity of the patient's MDS/AML cells (patient's MDS/AML cells; 10 μM in liquid culture, CFC 10 days): inhibited cell proliferation and clonogenic capacity | thrombocytopenia on treatment ([7]; 3.1 mg/kg IV once weekly, one patient): no grade 3 or 4 thrombocytopenia was observed | circulating CD34+ leukemic blasts ([7]; 3.1 mg/kg IV once weekly, weeks 2 and 3): less than 1% | circulating CD34+ leukemic blasts ([7]; 3.1 mg/kg IV once weekly, within 12 hours, initially 5 to 7%): 1.5 to 2.5% | p53 protein (intracellular FACS) ([7]; 3.1 mg/kg IV, first administration): rapidly induced in CD34^+ leukemic blasts, but not in healthy lymphocytes | cell proliferation [8]: no effect on cell proliferation | grade 3/4 thrombocytopenias [9]: no reported grade 3/4 thrombocytopenias | proportion of cells harboring an active TS (U2OS p21-MS2 cells): ~ 44% | cytotoxic activity [10]: potent activity against all five cell lines with WT p53 | colony-forming capacity (CFC) (AML cell lines; 0.5 pM (so in the source), methylcellulose, 10 days, n = 3): abrogated the colony-forming capacity | serial replating capacity (AML cell lines; 0.5 μM, three of the five AML cell lines): completely abrogated serial replating capacity | potency in CFC and serial replating assays versus comparators (AML cell lines; AML cell lines): increased potency over RG7388 and all other p53- stapled peptide prototypes tested | inhibition of clonogenicity versus RG7388 (AML cell lines; all five AML cell lines): greater inhibition of clonogenicity compared to RG7388

CN1CCN(c2ccc([N+](=O)[O-])c3no[n+]([O-])c23)CC1 [NSC-207895]
expression of MDMX (MDMX [11]): downregulated expression of MDMX

COc1ccc(C2=N[C@@H](c3ccc(Cl)cc3)[C@@H](c3ccc(Cl)cc3)N2C(=O)N2CCNC(=O)C2)c(OC(C)C)c1 [Nutlin-3]
bioavailability [12]: poor bioavailability

CCOc1cc(C(C)(C)C)ccc1C1=N[C@@](C)(c2ccc(Cl)cc2)[C@@](C)(c2ccc(Cl)cc2)N1C(=O)N1CCN(CCCS(C)(=O)=O)CC1 [RG7112]
affinity for MDMX (MDMX [13]): lack of affinity for MDMX

COc1cc(C(=O)O)ccc1NC(=O)[C@@H]1N[C@@H](CC(C)(C)C)[C@](C#N)(c2ccc(Cl)cc2F)[C@H]1c1cccc(Cl)c1F [RG7388]
wash-off t1/2 from MDM2-coated surface (MDM2): 2 to 3 min | binding to MDMX (MDMX [14]): did not bind to MDMX at all | affinity for MDMX (MDMX [13]): lack of affinity for MDMX
